The subject of assay [1] is insulin+ cells (beta cells). Kind of assay: Immunohistochemical characterisation of pancreata, GABA and Glu001 combination study. In kind it is in vivo, mice. Particulars: 3-month old WT animals treated for a month, daily IP; vs saline. The procedure:
To determine if the combination of GABA and Glu001 could increase beta-cell mass wild type mice were treated with 1) saline, 2) GABA (daily IP injections of 50 μM/40 g mouse), 3) Glu001 (daily IP injections of 4 mg/kg) and 4) GABA+Glu001.

In assay [2] the test system is beta-like cells. Particulars: upon GABA administration, as mentioned in WO14048788; cited from earlier work.

Regarding `NCCCC(=O)O` [GABA, gamma-amino butyric acid], the “insulin+ cell count / beta cell mass” value in assay [1] was “expected increase”. The beta-like cell number entry in assay [2] was “progressive increase”.

The values are drawn from patent US10610504B2, “Alpha-cell re-generation combined with conversion to beta cells” (INSERM (INSTITUT NATIONAL DE LA SANTÉ ET DE LA RECHERCHE …, priority 2014, dated 2020).
